# Experimental data as given in patent publication US7358239B2, “Pyrrolidinyl, piperidinyl or homopiperidinyl substituted (benzodioxan, benzofuran or benzopyran) derivatives” (Janssen Pharmaceutica, N.V., priority 1999, dated 2008).
# System: fundus of the stomach (gastric tone)
# Test: Gastric tone measured by an electronic barostat in conscious dogs
# Assay type: in vivo
# Conditions: mean maximal change in gastric volume on relaxation of the fundus; S.C. administration, 0.63 mg/kg; 1 hour observation period; constant pressure 6 mmHg; conscious female beagle dogs
# Procedure: C.1. Gastric Tone Measured by an Electronic Barostat in Conscious Dogs Gastric tone cannot be measured by manometric methods. Therefore an electronic barostat was used. This allows the study of the physiological pattern and regulation of gastric tone in conscious dogs and the influence of test-compounds on this tone. The barostat consists of an air injection system which is connected by a double-lumen 14-French polyvinyl tube to an ultrathin flaccid polyethylene bag (maximal volume: ±700 ml). Variations in gastric tone were measured by recording changes in the volume of air within an intragastric bag, maintained at a constant pressure. The barostat maintains a constant pressure (preselected) within a flaccid air-filled bag introduced into the stomach, changing the volume of air within, the bag by an electronic feedback system. Thus, the barostat measures gastric motor activity (contraction or relaxation) as changes in intragastric volume (decrease or increase resp.) at a constant intragastric pressure. The barostat consists of a strain gauge linked by an electronic relay to an air injection-aspiration system. Both the strain gauge and the injection system are connected by means of double-lumen polyvinyl tube to an ultrathin polyethylene bag. […] Test compounds were screened, i.e. changes in gastric volume were measured, usually at 0.63 mg/kg. […]
substance,measurement,value
"[1(R),[B-(3α,4α)]]-1-[1-[(3,4-dihydro-2H-1-benzopyran-2-yl)methyl]-3-methoxy-4-piperidinyl]-2(1H)pyrimidinone [Co. No. 2]",Maximum change in volume,9 mL
